Measurements as given in the CheMixHub viscosity set.

Experiment: xn = mol fraction of the nth substance listed
Settings: 101 kPa

CC(CC(C)(C)C)CP(=O)(O)CC(C)CC(C)(C)C (configuration not stated) + ClC(Cl)(Cl)Cl
298.15 K
Settings	viscosity [mPa·s]
x1 = 0.0063	0.961
x1 = 0.0131	1.04
x1 = 0.0159	1.076
x2 = 0.1192	98.3
x2 = 0.201	83.19
x2 = 0.3155	66.36
x2 = 0.5037	36.06
x2 = 0.6763	19.27
x2 = 0.7689	12.88
x2 = 0.7808	11.73
x2 = 0.8099	9.498
x2 = 0.86	5.932
x2 = 0.8741	4.951
x2 = 0.9286	2.263
x2 = 0.9325	2.124
x2 = 0.9717	1.255

CC(CC(C)(C)C)CP(=O)(O)CC(C)CC(C)(C)C (configuration not stated) + ClC(Cl)Cl
298.15 K
Settings	viscosity [mPa·s]
x1 = 0.0053	0.568
x1 = 0.0095	0.615
x1 = 0.011	0.638
x2 = 0.1271	90.02
x2 = 0.2117	75.09
x2 = 0.3912	50.44
x2 = 0.5499	30.02
x2 = 0.7028	11.91
x2 = 0.7739	6.921
x2 = 0.8002	5.613
x2 = 0.8091	5.202
x2 = 0.8378	3.942
x2 = 0.8852	2.458
x2 = 0.8924	2.301
x2 = 0.9394	1.35
x2 = 0.9426	1.28
x2 = 0.9762	0.818

CC(C)CCO + ClCCCl
viscosity [mPa·s]
Settings	x1 = 0.1272	x1 = 0.2201	x1 = 0.3264	x1 = 0.4302	x1 = 0.5765	x1 = 0.6639	x1 = 0.8049	x1 = 0.888
303.15 K	0.743	0.797	0.9054	1.029	1.302	1.532	2.081	2.51
313.15 K	0.6478	0.6865	0.7649	0.8579	1.065	1.23	1.619	1.91
323.15 K	0.5786	0.603	0.665	0.7365	0.8917	1.015	1.309	1.507

CC(CC(C)(C)C)CP(=O)(O)CC(C)CC(C)(C)C (configuration not stated) + ClCCCl
298.15 K
Settings	viscosity [mPa·s]
x1 = 0.0052	0.825
x1 = 0.0094	0.891
x1 = 0.0107	0.931
x2 = 0.0747	93.3
x2 = 0.1457	79.06
x2 = 0.2376	61.57
x2 = 0.3715	42.12
x2 = 0.568	20.09
x2 = 0.7166	9.021
x2 = 0.8017	5.212
x2 = 0.8105	4.99
x2 = 0.8887	2.678
x2 = 0.8942	2.603
x2 = 0.9417	1.597
x2 = 0.9439	1.578
x2 = 0.9767	1.087

CCOCCO + NC1CCCCC1
308.15 K
Settings	viscosity [mPa·s]
x1 = 0.1163	1.345
x1 = 0.2284	1.366
x1 = 0.3366	1.391
x1 = 0.4411	1.419
x1 = 0.5421	1.437
x1 = 0.6398	1.457
x1 = 0.7342	1.459
x1 = 0.8257	1.455
x1 = 0.9142	1.45

CC(C)CCO + NC=O
298.1 K
Settings	viscosity [mPa·s]
x2 = 0.0932	3.579
x2 = 0.1809	3.571
x2 = 0.2579	3.687
x2 = 0.3292	3.799
x2 = 0.4564	3.993
x2 = 0.5661	4.174
x2 = 0.6617	4.273
x2 = 0.7463	4.252
x2 = 0.8205	4.071
x2 = 0.8871	3.8
x2 = 0.9462	3.567

CCOCCO + NC=O
Settings	viscosity [mPa·s]
303 K, x2 = 0.1539	2.222
303 K, x2 = 0.3334	2.676
303 K, x2 = 0.4617	2.99
303 K, x2 = 0.5714	3.203
303 K, x2 = 0.6669	3.477
303 K, x2 = 0.7501	3.576
303 K, x2 = 0.8235	3.446
303 K, x2 = 0.8889	3.199
303 K, x2 = 0.9474	3.008
303.15 K, x2 = 0.8063	3.495
313 K, x2 = 0.1539	1.769
313 K, x2 = 0.3334	2.075
313 K, x2 = 0.4617	2.139
313 K, x2 = 0.5714	2.481
313 K, x2 = 0.6669	2.647
313 K, x2 = 0.7501	2.752
313 K, x2 = 0.8235	2.588
313 K, x2 = 0.8889	2.513
323.15 K, x2 = 0.2009	1.415

CCOCCO + NCCO
viscosity [mPa·s]
Settings	293.15 K	298.15 K	303.15 K	308.15 K	313.15 K	318.15 K	323.15 K
x2 = 0.141	2.898	2.544	2.246	1.998	1.786	1.605	1.449
x2 = 0.387	5.417	4.594	3.935	3.401	2.963	2.6	2.297
x2 = 0.596	9.217	7.588	6.312	5.319	4.527	3.89	3.371
x2 = 0.775	14.17	11.37	9.259	7.642	6.388	5.402	4.614
x2 = 0.93	20.26	15.94	12.77	10.37	8.539	7.122	6.005
